In data set [1] the test system is tumor. The data set can be described thus: preclinical anti-tumor activity. In kind it is in vivo. The settings on record: oral Compound I versus I.V. paclitaxel.
Data set [2] is described as follows: oral bioavailability in dog. In kind it is in vivo.
The subject of data set [3] is NSCLC. The data set can be described thus: single-agent treatment of NSCLC patients. In kind it is in vivo, humans. The settings on record: Compound I.
Data set [4] in a line: oral bioavailability in humans. The settings on record: human, in vivo, 45% coefficient of variation.
The nature of data set [5]: oral bioavailability in rats. In kind it is in vivo. The settings on record: rat.
The test system of data set [6] is tumor. The data set can be described thus: Phase I data, Compound I single agent. In kind it is in vivo, humans.
Data set [7] deals with variety of tumor types, including NSCLC. To be noted: cited from earlier work.
Data set [8] relates to NSCLC. To be noted: chemo-naive or pre-treated NSCLC; cited from earlier work.

Take `COC(=O)O[C@@]12CO[C@@H]1C[C@H](O)[C@@]1(C)C(=O)[C@H](OC(C)=O)C3=C(C)[C@@H](OC(=O)[C@H](O)[C@@H](NC(=O)OC(C)(C)C)C(C)(C)C)C[C@@](O)([C@@H](OC(=O)c4ccccc4)[C@H]21)C3(C)C` [Compound I, 3′-tert-butyl-3′-N-tert-butyloxycarbonyl-4-deacetyl-3′-dephenyl-3′-N-debenzoyl-4-O-methoxycarbonyl-paclitaxel]: the preclinical anti-tumor activity entry in the data set with tumor [1] is recorded as “comparable to intravenous (I.V.) paclitaxel”. The oral bioavailability result in data set [2] and in data set [5] was “good oral bioavailability” throughout. The “activity in treatment of pre-treated NSCLC” value with NSCLC [3] is listed as “promising early signs of activity”. Moreover, the main toxicity result with NSCLC [3] (pre-treated NSCLC) is on record as “transient, manageable neuropathy”. The same compound came in with a bioavailability in data set [4] of 24%. For the same compound, the anti-tumor activity result with tumor [6] (continuous weekly schedule, doses of 120 mg/m^2 and higher) is recorded as “shows anti-tumor activity”. In addition, the tolerability result in the data set with tumor [6] (doses of 120 and 200 mg/m^2) is listed as “acceptable”. Also, in the data set on tumor [6] (twice weekly schedule, doses of 60 mg/m^2 and higher, versus weekly schedule), the dose limiting toxicities result is given as “may reduce dose limiting toxicities”.
Consider `Nc1nc2[nH]cc(CCc3ccc(C(=O)N[C@@H](CCC(=O)O)C(=O)O)cc3)c2c(=O)[nH]1` [Pemetrexed], for which the “anti-tumor activity in pre-clinical models” value in data set [7] is given as “has shown anti-tumor activity”. For the same compound, in the data set on NSCLC [8], the “activity in treatment of NSCLC” value is on record as “single-agent activity” and the tolerability profile result is reported as “acceptable tolerability profile”.

What is called bioavailability is dose-corrected exposure relative to a reference, in per cent. Lower therefore signals little systemic uptake.
